Experiments:
Assay type in all cases: cell-based
LPA1 [1] = molecular target: T1, LPA1 (Homo sapiens, UniProt Q92633); experiment: Ca Flux LPA1 assay; design: the full-length cDNA for human LPA1 is obtained by PCR of the reverse transcription reaction; expressed in transfected cells
LPA/S1P GPCR of interest = molecular target: T2, LPA/S1P GPCR of interest (Homo sapiens, UniProt Q92633); experiment: Beta-Arrestin based assay (PathHunter)
T2 construct: host or cells: CHO
How it was run: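 EA Parental CHO cells (DiscoverX) were transfected with FuGENE (Roche) using CMV promoter-driven DNA constructs encoding the LPA/S1P GPCR of interest fused to a ProLink tag. Beta-arrestin recruitment in agonist mode was assessed 24-48 hrs later with PathHunter kits. Tests ran in quadruplicate in white 384 well plates, and end point luminescence was fit to a 4 parameter logistic function.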

LPA1 [2] = molecular target: T1, LPA1; experiment: LPA1 Migration Assay (Oris); design: host or cells: primary fibroblasts (lung, dermal), HFL-1, 3T3 and CHO cells expressing LPA1R; details: read-out: Cell Migration EC50
How it was run: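 Oris exclusion-zone migration of LPA1R-expressing cells (primary lung/dermal fibroblasts, HFL-1, 3T3, CHO), Cell Tracker Green-loaded and serum-starved 12-24 h, toward LPA or serum. Fixed cells in the detection zone were counted by high-content imaging, and cell number vs. concentration was fitted to a 4-parameter logistic.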

T1 sequence (Q92633 whole entry): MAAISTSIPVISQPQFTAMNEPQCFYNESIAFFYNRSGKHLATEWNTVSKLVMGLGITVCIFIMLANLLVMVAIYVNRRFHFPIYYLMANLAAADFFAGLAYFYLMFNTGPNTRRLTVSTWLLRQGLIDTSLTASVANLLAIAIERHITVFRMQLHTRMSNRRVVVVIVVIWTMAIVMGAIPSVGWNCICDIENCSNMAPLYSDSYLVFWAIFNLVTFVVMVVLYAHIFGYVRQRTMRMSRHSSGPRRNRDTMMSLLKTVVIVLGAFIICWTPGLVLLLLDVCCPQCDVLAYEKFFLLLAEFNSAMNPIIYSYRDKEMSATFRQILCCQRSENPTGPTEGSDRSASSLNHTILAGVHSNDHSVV
T2 sequence (Q92633 whole entry): as above

Row | SMILES | IC50 (LPA1 [1]) [µM] | EC50 (LPA/S1P GPCR of interest) [µM] | EC50 (LPA1 [2]) [µM]
1 | C[C@@H](OC(=O)Nc1c(C#Cc2nc3sc(C4(C(=O)O)CC4)cc3s2)cnn1C)c1ccccc1 [IT095] | < 0.05 | – | –
2 | C[C@@H](OC(=O)Nc1c(C#Cc2cc3sc(C4(C(=O)NS(C)(=O)=O)CC4)cc3s2)cnn1C)c1ccccc1 [IT098] | < 0.05 | – | –
3 | CCc1nc(C(=O)O)c(Oc2ccc(-c3ccc(-c4onc(C)c4NC(=O)O[C@H](C)c4ccccc4)cc3)cc2)o1 [IT434] | 0.05 to 0.5 | < 0.05 | –
4 | Cc1noc(C#Cc2nc3sc(C4(C(=O)O)CC4)cc3s2)c1NC(=O)O[C@H](C)c1ccccc1 [IT102] | < 0.05 | – | 0.05 to 0.5
5 | Cc1nsc(-c2ccc(-c3ccc(C4(C(=O)O)CC4)cc3)cc2)c1NC(=O)OC(c1ccccc1)C(F)(F)F (single isomer, unassigned) [IT078] | 0.05 to 0.5 | – | 0.05 to 0.5
6 | Cc1noc(-c2ccc(-c3cc(F)c(Oc4ccsc4C(=O)O)c(F)c3)cc2)c1NC(=O)O[C@H](C)c1ccccc1 [IT463] | – | < 0.05 | < 0.05
7 | C[C@@H](OC(=O)Nc1c(-c2cc3sc(-c4ccc(CC(=O)O)cc4Cl)cc3s2)cnn1C)c1ccccc1 [IT140] | – | 0.05 to 0.5 | > 0.5
8 | C[C@@H](OC(=O)Nc1c(-c2cc3sc(-c4ccc(CC(=O)O)cc4F)cc3s2)cnn1C)c1ccccc1 [IT134] | – | 0.05 to 0.5 | > 0.5
9 | Cc1noc(-c2ccc(-c3ccc(Oc4nc5ccccc5cc4C(=O)O)cc3)cc2)c1NC(=O)O[C@H](C)c1ccccc1 [IT482] | – | < 0.05 | 0.05 to 0.5
10 | Cc1noc(-c2ccc(-c3ccc(S(C)(=O)=O)nc3)cc2)c1NC(=O)O[C@H](C)c1ccccc1 [IT139] | – | 0.05 to 0.5 | 0.05 to 0.5
11 | CCOc1cc(CC(=O)O)ccc1-c1cc2sc(-c3nnn(C)c3NC(=O)O[C@H](C)c3ccccc3)cc2s1 [IT191] | – | > 0.5 | > 0.5
12 | C[C@@H](OC(=O)Nc1c(-c2cc3sc(-c4ccc(CC(=O)O)cc4N)cc3s2)nnn1C)c1ccccc1 [IT181] | – | > 0.5 | > 0.5
13 | C[C@@H](OC(=O)Nc1c(C#Cc2sc3cc(C4(C(=O)O)CC4)sc3c2C(F)(F)F)cnn1C)c1ccccc1 [IT103] | < 0.05 | – | 0.05 to 0.5
14 | C[C@@H](OC(=O)Nc1c(-c2cc3sc(-c4ccc(CC(=O)O)s4)cc3s2)nnn1C)c1ccccc1 [IT179] | – | 0.05 to 0.5 | > 0.5
15 | Cc1cc(CC(=O)O)ccc1-c1cc2sc(-c3cnn(C)c3NC(=O)O[C@H](C)c3ccccc3)cc2s1 [IT169] | – | 0.05 to 0.5 | > 0.5
16 | C[C@@H](OC(=O)Nc1c(-c2cc3sc(-c4ccc(CC(=O)O)c(Cl)c4)cc3s2)cnn1C)c1ccccc1 [IT165] | – | 0.05 to 0.5 | > 0.5
17 | CC(=O)NS(=O)(=O)c1ccc(-c2ccc(-c3onc(C)c3NC(=O)O[C@H](C)c3ccccc3)cc2)cc1 [IT131] | – | 0.05 to 0.5 | > 0.5
18 | C[C@@H](OC(=O)Nc1c(-c2cc(F)c(-c3ccc(C4(C(=O)O)CC4)cc3)cc2F)oc2ncccc12)c1ccccc1 [IT096] | – | < 0.05 | 0.05 to 0.5
19 | CNS(=O)(=O)c1ccc(-c2ccc(-c3onc(C)c3NC(=O)O[C@H](C)c3ccccc3)cc2)cc1 [IT128] | – | > 0.5 | > 0.5
20 | C[C@@H](OC(=O)Nc1c(-c2ccc(-c3ccc(Oc4cc(F)ccc4C(=O)O)cc3)cc2)cnn1C)c1ccccc1 [IT469] | – | < 0.05 | 0.05 to 0.5
21 | C[C@@H](OC(=O)Nc1c(-c2cc3sc(-c4ccc(Oc5ccccc5C(=O)O)cc4)cc3s2)cnn1C)c1ccccc1 [IT406] | – | < 0.05 | 0.05 to 0.5
22 | Cc1noc(-c2ccc(-c3ccc(S(=O)(=O)CC4CC4)cc3)cc2)c1NC(=O)O[C@H](C)c1ccccc1 [IT174] | – | > 0.5 | > 0.5
23 | C[C@@H](OC(=O)Nc1c(-c2ccc(-c3ccc(OC4(C(=O)O)CC4)cc3)cc2)oc2ccccc12)c1ccccc1 [IT512] | – | 0.05 to 0.5 | > 0.5
24 | C[C@@H](OC(=O)Nc1c(-c2cc3sc(-c4ccc(CC(=O)O)cc4N)cc3s2)cnn1C)c1ccccc1 [IT180] | – | > 0.5 | > 0.5
25 | C[C@@H](OC(=O)Nc1c(-c2cc3sc(-c4ccc(C5(C(=O)O)CC5)c(F)c4)cc3s2)nnn1C)c1ccccc1 [IT296] | – | < 0.05 | 0.05 to 0.5
26 | Cc1nsc(-c2ccc(-c3cc(F)c(Oc4ccsc4C(=O)O)c(F)c3)cc2)c1NC(=O)O[C@H](C)c1ccccc1 [IT462] | – | < 0.05 | < 0.05
27 | Cc1nsc(-c2cc(Cl)c(-c3cc4sc(C5(C(=O)O)CC5)cc4s3)cc2F)c1NC(=O)O[C@H](C)c1ccccc1 [IT281] | – | < 0.05 | 0.05 to 0.5
28 | Cc1nnn(-c2ccc(-c3ccc(Oc4cccc(F)c4C(=O)O)cc3)cc2)c1NC(=O)O[C@H](C)c1ccccc1 [IT457] | – | 0.05 to 0.5 | > 0.5

Row | SMILES | IC50 (LPA1 [1]) [µM] | EC50 (LPA/S1P GPCR of interest) [µM] | EC50 (LPA1 [2]) [µM]
29 | C[C@@H](OC(=O)Nc1c(-c2cc3sc(-c4ccc(CC(=O)O)cc4)cc3s2)nnn1C)c1ccccc1 [IT160] | – | 0.05 to 0.5 | 0.05 to 0.5
30 | C[C@@H](OC(=O)Nc1c(-c2ccc(-c3cc(F)c(OC4(C(=O)O)CC4)c(F)c3)cc2)cnn1C)c1ccccc1 [IT314] | – | < 0.05 | > 0.5
31 | CCOC(=O)c1cccnc1Oc1c(F)cc(-c2ccc(-c3nnn(C)c3NC(=O)O[C@H](C)c3ccccc3)cc2)cc1F [IT476] | – | < 0.05 | > 0.5
32 | Cc1cc(C2(C(=O)O)CC2)ccc1-c1cc2sc(-c3nnn(C)c3NC(=O)O[C@H](C)c3ccccc3)cc2s1 [IT291] | – | < 0.05 | 0.05 to 0.5
33 | C[C@@H](OC(=O)Nc1cccnc1C#Cc1cc2sc(C3(C(=O)O)CC3)cc2s1)c1ccccc1 [IT115] | – | 0.05 to 0.5 | > 0.5
34 | Cc1nnn(-c2ccc(-c3cc(F)c(Oc4ccncc4C(=O)O)c(F)c3)cc2)c1NC(=O)O[C@H](C)c1ccccc1 [IT440] | – | 0.05 to 0.5 | > 0.5
35 | Cc1noc(-c2ccc(-c3ccc(Oc4ccsc4C(=O)O)cc3)cc2)c1NC(=O)O[C@H](C)c1ccccc1 [IT428] | – | < 0.05 | 0.05 to 0.5
36 | Cc1nsc(-c2ccc(-c3cc(F)c(Oc4ccncc4C(=O)O)c(F)c3)cc2)c1NC(=O)O[C@H](C)c1ccccc1 [IT439] | – | < 0.05 | > 0.5
37 | C[C@@H](OC(=O)Nc1c(-c2ccc(-c3ccc(Oc4ccc(F)cc4C(=O)O)cc3)cc2)nnn1C)c1ccccc1 [IT460] | – | < 0.05 | < 0.05
38 | C[C@@H](OC(=O)Nc1c(C(F)(F)F)nnn1-c1ccc(-c2ccc(C3(C(=O)O)CC3)cc2)cc1)c1ccccc1 [IT072] | 0.05 to 0.5 | – | > 0.5
39 | Cc1nsc(-c2ccc(NC(=O)c3csc(C4(C(=O)O)CC4)c3)cc2)c1NC(=O)O[C@H](C)c1ccccc1 [IT193] | – | 0.05 to 0.5 | > 0.5
40 | C[C@@H](OC(=O)Nc1c(-c2ccc(-c3ccc(C(C(=O)O)C4CCC4)cc3)cc2)cnn1C)c1ccccc1 (stereo partly drawn) [IT151] | – | < 0.05 | 0.05 to 0.5
41 | C[C@@H](OC(=O)Nc1c(-c2cc3sc(-c4ccc5[nH]cc(CC(=O)O)c5c4)cc3s2)cnn1C)c1ccccc1 [IT188] | – | 0.05 to 0.5 | > 0.5
42 | Cc1noc(-c2ccc(-c3ccc(Oc4nccnc4C(=O)O)cc3)cc2)c1NC(=O)O[C@H](C)c1ccccc1 [IT232] | – | < 0.05 | 0.05 to 0.5
43 | Cc1nsc(-c2ccc(C3CCC(C4(C(=O)O)CC4)CC3)cc2)c1NC(=O)O[C@H](C)c1ccccc1 (stereo partly drawn) [IT091] | 0.05 to 0.5 | – | > 0.5
44 | C[C@@H](OC(=O)Nc1c(-c2ccc(-c3ccc(OC4(C(=O)O)CC4)cc3)cc2)cnn1C)c1ccccc1 [IT511] | – | < 0.05 | 0.05 to 0.5
45 | Cc1noc(-c2ccc(-c3ccc(Oc4ncn(C)c4C(=O)O)cc3)cc2)c1NC(=O)O[C@H](C)c1ccccc1 [IT486] | – | 0.05 to 0.5 | > 0.5
46 | Cc1noc(-c2ccc(-c3ccc(Oc4scnc4C(=O)O)cc3)cc2)c1NC(=O)O[C@H](C)c1ccccc1 [IT420] | – | < 0.05 | 0.05 to 0.5
47 | COC(=O)c1ccccc1Oc1ccc(-c2ccc(-c3nnn(C)c3NC(=O)O[C@H](C)c3ccccc3)cc2)cc1 [IT478] | – | 0.05 to 0.5 | 0.05 to 0.5
48 | C[C@@H](OC(=O)Nc1c(-c2ccc(C#CC(=O)N[C@@H](C(=O)O)c3ccccc3)cc2)cnn1C)c1ccccc1 [IT401] | – | > 0.5 | 0.05 to 0.5
49 | Cc1noc(C#Cc2ccc(NC3(C(=O)O)CC3)cc2)c1NC(=O)O[C@H](C)c1ccccc1 [IT006] | – | 0.05 to 0.5 | 0.05 to 0.5
50 | Cc1noc(-c2ccc(-c3ccc(S(=O)(=O)NC(=O)C4CC4)cc3)cc2)c1NC(=O)O[C@H](C)c1ccccc1 [IT138] | – | < 0.05 | 0.05 to 0.5
51 | Cc1nsc(-c2cc3sc(-c4ccc(CC(=O)O)nc4)cc3s2)c1NC(=O)O[C@H](C)c1ccccc1 [IT185] | – | > 0.5 | > 0.5
52 | Cc1cc(C2(C(=O)O)CC2)ccc1-c1cc2sc(-c3cnn(C)c3NC(=O)O[C@H](C)c3ccccc3)cc2s1 [IT260] | – | < 0.05 | 0.05 to 0.5
53 | C[C@@H](OC(=O)Nc1c(-c2cc3sc(-c4ccc(CC(=O)O)c(F)c4)cc3s2)cnn1C)c1ccccc1 [IT164] | – | < 0.05 | > 0.5
54 | Cc1nnn(-c2ccc(-c3ccc(Oc4ccccc4C(=O)O)cc3)cc2)c1NC(=O)O[C@H](C)c1ccccc1 [IT310] | – | 0.05 to 0.5 | > 0.5
55 | Cc1noc(-c2cc3cc4sc(CC(=O)O)cc4cc3s2)c1NC(=O)O[C@H](C)c1ccccc1 [IT499] | – | > 0.5 | > 0.5

Reference: patent publication US20140213538A1, “LYSOPHOSPHATIDIC ACID RECEPTOR ANTAGONISTS” (InterMune, Inc., priority 2013, published 2014)
